Assay results as given in US20110201568A1, “PHYOTOCHEMICAL COMPOSITION AND A PROCESS THEREOF” (priority 2008, published 2011).
In brackets after ≈: the same amount, converted by molar mass. Read-outs that look alike come from different tables or passages of the source. Blank lines part the entries; values can stand above or below the molecule they belong to.

Experiments:
[1] = system: Helicobacter pylori; assay: Anti Helicobacter pylori activity, overall observations; format: cell-based; details: strains 80A and ATCC 43504
[2] = system: Helicobacter pylori standard strain ATCC 43504; assay: MIC/MBC microbroth dilution assay, strain ATCC 43504; format: cell-based; details: ATCC43504, cell count ~10^6-10^7 CFU/ml
Method: (§1) • MICs of the two samples were determined employing one clinical (80A) and one standard (ATCC 43504) strain (Osato, 2000). • Two-fold serial dilutions of the samples were performed in 96-well microtitre plate. • Plates were kept for appropriate time in Incubator under optimum growth condition. • Following incubation, the plates were examined visually, and the lowest concentration showing complete inhibition of growth was recorded as the MIC of the respective sample.
(§2) • Aliquots of culture in which no growth had been detected were taken from the wells of the above microtitre plates and used to streak on fresh agar plates. • MBCs were determined by visual inspection of such plates after further incubation and the point where no growth (less than 10 colony) appeared was considered as the MBCs.

[3] = system: Helicobacter pylori standard strain ATCC 43504; assay: Anti Helicobacter pylori disc diffusion sensitivity assay, standard strain ATCC 43504; format: cell-based; details: 40 ng/disc (standard drug)
Method: (§3) For water containing sample, discs were first placed on the plate and then 5-10 μl of each sample, was added. The results are shown in below table: 10.

[4] = system: Helicobacter pylori clinical strain 80A; assay: MIC/MBC microbroth dilution assay, strain 80A; format: cell-based; details: cell count ~10^6-10^7 CFU/ml
Method: as §1, §2

[5] = system: Helicobacter pylori clinical strain 80A; assay: Anti Helicobacter pylori disc diffusion sensitivity assay, clinical strain 80A; format: cell-based; details: 10 ng/disc (standard drug)
Method: as §3

[6] = molecular target: porcine pancreatic elastase (Sus scrofa, UniProt P00772); assay: Elastase inhibition assay; format: biochemical
Chain of porcine pancreatic elastase (P00772 27-266): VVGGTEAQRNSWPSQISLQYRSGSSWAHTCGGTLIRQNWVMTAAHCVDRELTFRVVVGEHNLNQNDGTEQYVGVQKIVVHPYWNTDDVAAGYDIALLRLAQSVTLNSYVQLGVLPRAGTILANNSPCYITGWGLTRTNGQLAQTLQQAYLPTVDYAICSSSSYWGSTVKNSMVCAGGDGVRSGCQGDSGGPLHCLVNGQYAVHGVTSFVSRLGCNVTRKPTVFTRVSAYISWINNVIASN
Method: In brief, 233 μl of each test solutions/reference standard (various concentrations) in 100 mM Tris-HCl pH8.0 and 7 μl of enzyme (porcine pancreatic elastase, 0.84 units/ml) solution was incubated at 37° C. for 15 mins. Following incubation, 20 μl of substrate (n-succinyl-ala-ala-ala-p-nitroanilide) solution was added and incubated at 37° C. for 30 mins. The absorbance was measured at 405 nm. A control reaction was carried out without the test sample. The percentage inhibition was calculated by the equation [absorbance (control)−absorbance (test)]/absorbance (control)×100]. The IC50 values were determined using log-probit analysis.

[7] = system: cold stress induced ulcer; assay: Cold stress induced ulcer model; format: in vivo, albino Wistar rats
[8] = system: pylorus ligation induced ulcer; assay: Pylorus ligation induced ulcer model; format: in vivo, albino Wistar rats; details: 10 mg/kg; mean ± SEM, n = 6
Description: Details of the study are provided in the below table: 4. [table]

[9] = porcine pancreatic elastase, log-probit analysis, read-out: IC50 in elastase inhibition assay (converted)

Compound: CC[C@H]1OC(=O)[C@H](C)[C@@H](O[C@H]2C[C@@](C)(OC)[C@@H](O)[C@H](C)O2)[C@H](C)[C@@H](O[C@@H]2O[C@H](C)C[C@H](N(C)C)[C@H]2O)[C@](C)(OC)C[C@@H](C)C(=O)[C@H](C)[C@@H](O)[C@]1(C)O [Clarithromycin]
anti Helicobacter pylori activity (disc diffusion observation) [1]: showed appropriate zone of inhibition
MBC [2]: 0.05 µg/mL (≈ 0.0668 µM)
MIC [2]: 0.025 µg/mL (≈ 0.0334 µM)
Inhibition Zone Diameter in strain ATCC 43504 [3]: 1.8-2.0 cm
MBC [4]: 0.025 µg/mL (≈ 0.0334 µM)
MIC [4]: 0.013 µg/mL (≈ 0.0174 µM)
Inhibition Zone Diameter in strain 80A [5]: 1.8-2.0 cm

Compound: COc1ccc2[nH]c([S+]([O-])Cc3ncc(C)c(OC)c3C)nc2c1 (centres unmarked) [Omeprazole]
Ulcer index ([7]; 10 mg/kg, mean ± SEM, n = 6): 0.67 ± 0.49
pH ([7]; 10 mg/kg, mean ± SEM, n = 6): 6.50 ± 0.22
pH of stomach ([7]; comparison Table 12 remark, ulcer model not specified): the pH to more than 6
Gastric content [8]: 2.42 ± 0.24 mL
Total acidity [8]: 15.33 ± 0.92 mEq/L/100 g
Ulcer index [8]: 3.33 ± 1.38
pH [8]: 6.89 ± 0.14

Compound: C[C@H]1[C@H](C)CC[C@]2(C(=O)O)CC[C@]3(C)C(=CC[C@@H]4[C@@]5(C)CC[C@H](O)C(C)(C)[C@@H]5CC[C@]43C)[C@H]12 [Ursolic acid]
IC50 [6]: 23600 nM

The remaining lines, values ahead:

IC50 [6, 9]: 2860 nM
Compound: CCCCCCCCCCCCCCCCCCCCCCOC(=O)/C=C/c1ccc(O)c(O)c1 [Docosyl caffeate (2), docosyl caffeate]

IC50 [6, 9]: 2150 nM
Compound: CCCCCCCCCCCCCCCCCCCCOC(=O)/C=C/c1ccc(O)c(O)c1 [Eicosanyl caffeate(1), eicosanyl caffeate]
